Assay results reported in ChEMBL document CHEMBL3046569 (Med Chem Res, 2011).

Key:
[1] = Therapeutic index, ratio of IC50 for human H9 cells to EC50 for HIV1; type: cell-based; conditions: for pTI: h9
[2] = tested on: Human immunodeficiency virus 1; test: Antiviral activity against Human immunodeficiency virus 1 infected human H9 cells assessed as inhibition of viral replication; type: functional, organism-based; conditions: Human immunodeficiency virus 1, H9; read-out: pEC50 (converted)

| Compound | pTI [1] | EC50 [2] [nM] | selectivity ratio ([1]; H9 cells, read-out: Ratio IC50/EC50) |
| --- | --- | --- | --- |
| C=C(C)[C@@H]1CC[C@]2(COC(=O)CC3(CC(=O)O)CCCC3)CC[C@]3(C)[C@H](CC[C@@H]4[C@@]5(C)CC[C@H](O)C(C)(C)[C@@H]5CC[C@]43C)[C@@H]12 | -0.785 | 2100 |  |
| CC(C)[C@@H]1CC[C@]2(COC(=O)CCCC(=O)O)CC[C@]3(C)[C@H](CC[C@@H]4[C@@]5(C)CC[C@H](OC(=O)CCCC(=O)O)C(C)(C)[C@@H]5CC[C@]43C)[C@@H]12 | -1.23 | 1600 |  |
| C=C(C)[C@@H]1CC[C@]2(COC(=O)CCC(=O)O)CC[C@]3(C)[C@H](CC[C@@H]4[C@@]5(C)CC[C@H](OC(=O)CCC(=O)O)C(C)(C)[C@@H]5CC[C@]43C)[C@@H]12 | -0.969 | 3800 |  |
| CC(CC(=O)O)CC(=O)OC[C@]12CC[C@@H](C(C)C)[C@@H]1[C@H]1CC[C@@H]3[C@@]4(C)CC[C@H](OC(=O)CC(C)CC(=O)O)C(C)(C)[C@@H]4CC[C@@]3(C)[C@]1(C)CC2 (some centres not stated) | -2.512 | 59 |  |
| C=C(C)[C@@H]1CC[C@]2(COC(=O)CCCC(=O)O)CC[C@]3(C)[C@H](CC[C@@H]4[C@@]5(C)CC[C@H](OC(=O)CCCC(=O)O)C(C)(C)[C@@H]5CC[C@]43C)[C@@H]12 | -0.833 | 3800 |  |
| C=C(COC(=O)CC(C)(C)CC(=O)O)[C@@H]1CC[C@]2(COC(=O)CC(C)(C)CC(=O)O)CC[C@]3(C)[C@H](CC[C@@H]4[C@@]5(C)CC[C@H](OC(=O)CC(C)(C)CC(=O)O)C(C)(C)[C@@H]5CC[C@]43C)[C@@H]12 | -2.59 | 45 |  |
| C=C(C)[C@@H]1CC[C@]2(CN)CC[C@]3(C)[C@H](CC[C@@H]4[C@@]5(C)CC[C@H](N)C(C)(C)[C@@H]5CC[C@]43C)[C@@H]12 | -0.708 | 1070 |  |
| C=C(C)[C@@H]1CC[C@]2(COC(=O)CC(C)CC(=O)O)CC[C@]3(C)[C@H](CC[C@@H]4[C@@]5(C)CC[C@H](OC(=O)CC(C)CC(=O)O)C(C)(C)[C@@H]5CC[C@]43C)[C@@H]12 (some centres not stated) | -3.725 | 3.9 |  |
| C=C(C)[C@@H]1CC[C@]2(COC(=O)CC(C)(C)CC(=O)O)CC[C@]3(C)[C@H](CC[C@@H]4[C@@]5(C)CCC(=O)C(C)(C)[C@@H]5CC[C@]43C)[C@@H]12 | -0.462 | 10000 |  |
| CC(C)[C@@H]1CC[C@]2(COC(=O)CC(C)(C)CC(=O)O)CC[C@]3(C)[C@H](CC[C@@H]4[C@@]5(C)CC[C@H](OC(=O)CC(C)(C)CC(=O)O)C(C)(C)[C@@H]5CC[C@]43C)[C@@H]12 | -3.353 | 4.7 |  |
| C=C(COC(=O)CC1(CC(=O)O)CCCC1)[C@@H]1CC[C@]2(COC(=O)CC3(CC(=O)O)CCCC3)CC[C@]3(C)[C@H](CC[C@@H]4[C@@]5(C)CC[C@H](OC(=O)CC6(CC(=O)O)CCCC6)C(C)(C)[C@@H]5CC[C@]43C)[C@@H]12 | -3.076 | 5.4 |  |
| C=C(C)[C@@H]1CC[C@]2(NOC(=O)CCC(C)(C)CC(=O)O)CC[C@]3(C)[C@H](CC[C@@H]4[C@@]5(C)CC/C(=N\OC(=O)CCC(C)(C)CC(=O)O)C(C)(C)[C@@H]5CC[C@]43C)[C@@H]12 | -0.532 | 4570 |  |
| CC(C)[C@@H]1CC[C@]2(C(=O)OC(=O)OCN(C)C)CC[C@]3(C)[C@H](CC[C@@H]4[C@@]5(C)CC[C@H](O)C(C)(C)[C@@H]5CC[C@]43C)[C@@H]12 | 0 | 6590 |  |
| CC(C)[C@@H]1CC[C@]2(C(=O)OC(=O)OCN(C)C)CC[C@]3(C)[C@H](CC[C@@H]4[C@@]5(C)CCC(=O)C(C)(C)[C@@H]5CC[C@]43C)[C@@H]12 | -0.544 | 3800 |  |
| C=C(C)[C@@H]1CC[C@]2(COC(=O)CC3(CC(=O)O)CCCC3)CC[C@]3(C)[C@H](CC[C@@H]4[C@@]5(C)CC[C@H](OC(=O)CC6(CC(=O)O)CCCC6)C(C)(C)[C@@H]5CC[C@]43C)[C@@H]12 | -2.427 | 76.9 |  |
| CCC(C)(CC(=O)O)CC(=O)OC[C@]12CC[C@@H](C(C)C)[C@@H]1[C@H]1CC[C@@H]3[C@@]4(C)CC[C@H](OC(=O)CC(C)(CC)CC(=O)O)C(C)(C)[C@@H]4CC[C@@]3(C)[C@]1(C)CC2 (some centres not stated) | -2.395 | 75 |  |
| C=C(C)[C@@H]1CC[C@]2(COC(=O)CC(C)(C)CC(=O)O)CC[C@]3(C)[C@H](CC[C@@H]4[C@@]5(C)CC[C@H](O)C(C)(C)[C@@H]5CC[C@]43C)[C@@H]12 | -0.892 | 3600 |  |
| C=C(C)[C@@H]1CC[C@]2(C(=O)O)CC[C@]3(C)[C@H](CC[C@@H]4[C@@]5(C)CC[C@H](OC(=O)CC(C)(C)CC(=O)O)C(C)(C)[C@@H]5CC[C@]43C)[C@@H]12 |  | 2.3 |  |
| C=C(C)[C@@H]1CC[C@]2(COC(=O)CC(C)(CC)CC(=O)O)CC[C@]3(C)[C@H](CC[C@@H]4[C@@]5(C)CC[C@H](OC(=O)CC(C)(CC)CC(=O)O)C(C)(C)[C@@H]5CC[C@]43C)[C@@H]12 (some centres not stated) | -3.541 | 5.3 |  |
| C=C(C)[C@@H]1CC[C@]2(COC(=O)CC(C)(C)CC(=O)O)CC[C@]3(C)[C@H](CC[C@@H]4[C@@]5(C)CC[C@H](OC(=O)CC(C)(C)CC(=O)O)C(C)(C)[C@@H]5CC[C@]43C)[C@@H]12 | -4.333 | 0.659 |  |
| CC(C)[C@@H]1CC[C@]2(COC(=O)CC3(CC(=O)O)CCCC3)CC[C@]3(C)[C@H](CC[C@@H]4[C@@]5(C)CC[C@H](OC(=O)CC6(CC(=O)O)CCCC6)C(C)(C)[C@@H]5CC[C@]43C)[C@@H]12 | -1.568 | 579 |  |
| C=C(COC(C)=O)[C@@H]1CC[C@]2(COC(C)=O)CC[C@]3(C)[C@H](CC[C@@H]4[C@@]5(C)CC[C@H](OC(C)=O)C(C)(C)[C@@H]5CC[C@]43C)[C@@H]12 | -0.398 | 10200 |  |
| C=C(C)[C@@H]1CC[C@]2(CNC(=O)CC(C)(C)CC(=O)O)CC[C@]3(C)[C@H](CC[C@@H]4[C@@]5(C)CC[C@H](NC(=O)CC(C)(C)CC(=O)O)C(C)(C)[C@@H]5CC[C@]43C)[C@@H]12 | -1.564 | 570 |  |
| C=C(C)[C@@H]1CC[C@]2(COC(=O)CC3(CC(=O)O)CCCC3)CC[C@]3(C)[C@H](CC[C@@H]4[C@@]5(C)CCC(=O)C(C)(C)[C@@H]5CC[C@]43C)[C@@H]12 | -0.477 | 4300 |  |
| C=C(C)[C@@H]1CC[C@]2(C(=O)NCCCCCCCC(=O)N[C@@H](CC(C)C)[C@@H](O)CC(=O)O)CC[C@]3(C)[C@H](CC[C@@H]4[C@@]5(C)CC[C@H](O)C(C)(C)[C@@H]5CC[C@]43C)[C@@H]12 | -1.544 | 330 |  |
| C=C(C)[C@@H]1CC[C@]2(C(=O)O)CC[C@]3(C)[C@H](CC[C@@H]4[C@@]5(C)CC[C@H](O)C(C)(C)[C@@H]5CC[C@]43C)[C@@H]12 (stereo in doubt; 1) [BETULINIC ACID] | -0.969 |  |  |
| C=C(C)[C@@H]1CC[C@]2(CO)CC[C@]3(C)[C@H](CC[C@@H]4[C@@]5(C)CC[C@H](O)C(C)(C)[C@@H]5CC[C@]43C)[C@@H]12 [BETULIN] | -0.279 |  | 1.9 |
